Data: patent publication US20240228468A1, “N-(6-((OCTAHYDROCYCLOPENTA[C]PYRROL-5-YI)AMINO)PYRIDAZIN-3-YL)PHENYL)CARBOXAMIDE AND (6- ((OCTAHYDROCYCLOPENTA[C]PYRROL-5-YL)AMINO)PYRIDAZIN-3-YL)BENZAMIDE DERIVATIVES AS MACHR M4 ANTAGONISTS FOR THE TREATMENT OF NEURODEGENERATIVE DISORDERS” (Vanderbilt University, priority 2021, published 2024)
Read-outs that look alike come from different tables or passages of the source.

Biological target: T1, Human M4 (Homo sapiens, UniProt P08173)
T1 construct: expressed in transfected cells; host or cells: CHO-K1 (ATCC), co-transfected with chimeric G protein Gqi5
T1 sequence (P08173 1-479): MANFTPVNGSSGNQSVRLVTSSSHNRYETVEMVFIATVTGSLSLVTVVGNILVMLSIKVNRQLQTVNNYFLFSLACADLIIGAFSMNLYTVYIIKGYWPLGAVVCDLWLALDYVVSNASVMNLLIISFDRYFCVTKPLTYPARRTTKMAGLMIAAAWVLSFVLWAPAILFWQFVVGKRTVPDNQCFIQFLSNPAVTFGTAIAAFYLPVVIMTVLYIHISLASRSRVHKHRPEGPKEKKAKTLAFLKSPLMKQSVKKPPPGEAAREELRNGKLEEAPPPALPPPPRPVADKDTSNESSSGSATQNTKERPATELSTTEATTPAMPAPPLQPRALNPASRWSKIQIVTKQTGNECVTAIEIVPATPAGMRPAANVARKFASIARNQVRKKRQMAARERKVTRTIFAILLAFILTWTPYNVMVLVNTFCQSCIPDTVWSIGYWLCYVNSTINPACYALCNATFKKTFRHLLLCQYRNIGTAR
Assay: mAChR M4 cell-based functional assay (calcium flux, antagonism of EC80 acetylcholine response)
Settings: for IC50: concentration-dependent decrease of the response elicited by an EC80 concentration of acetylcholine
Procedure: Human or rat M4 cDNA, along with the chimeric G protein Gqi5, were transfected into Chinese hamster ovary (CHO-K1) cells purchased from the American Type Culture Collection using Lipofectamine2000. M4/Gqi5/CHO cells were grown in Ham's F-12 medium containing 10% heat-inactivated fetal bovine serum (FBS), 20 mM HEPES, 500 μg/mL G418 sulfate, and 200 μg/mL Hygromycin B.
For high throughput measurement of agonist-evoked increases in intracellular calcium, CHO-K1 cells stably expressing muscarinic receptors were plated in growth medium lacking G418 and hygromycin at 15,000 cells/20 μL/well in Greiner 384-well black-walled, tissue culture (TC)-treated, clear-bottom plates (VWR). Cells were incubated overnight at 37° C. and 5% CO2. The next day, cells were washed using an ELX 405 (BioTek) with assay buffer; the final volume was then aspirated to 20 μL. Next, 20 μL of a 2.3 μM stock of Fluo-4/acetoxymethyl ester (Invitrogen, Carlsbad, CA), prepared as a 2.3 mM stock in DMSO and mixed in a 1:1 ratio with 10% (w/v) Pluronic F-127 and diluted in assay buffer, was added to the wells and the cell plates were incubated for 50 min at 37° C. and 5% CO2. Dye was removed by washing with the ELX 405 and the final volume was aspirated to 20 μL. Compound master plates were formatted in a 10 point concentration-response curve (CRC) format (1:3 dilutions) in 100% DMSO with a starting concentration of 10 or 1 mM using a BRAVO liquid handler (Agilent). Test compound CRCs were then transferred to daughter plates (240 nL) using the Echo acoustic plate reformatter (Labcyte, Sunnyvale, CA) and then diluted into assay buffer (40 μL) to a 2× stock using a Thermo Fisher Combi (Thermo Fisher Scientific, Waltham, MA).
Calcium flux was measured using the Functional Drug Screening System (FDSS) 6000 or 7000 (Hamamatsu Corporation, Tokyo, Japan) as an increase in the fluorescent static ratio. Compounds were applied to cells (20 μL, 2×) using the automated system of the FDSS at 2 seconds into the protocol and the data were collected at 1 Hz. At 143 s, 10 μL of an EC20 concentration of the muscarinic receptor agonist acetylcholine was added (5×), followed by the addition of 12 μL of an EC80 concentration of acetylcholine at the 268 s time point (5×). Agonist activity was analyzed as a concentration-dependent increase in calcium mobilization upon compound addition. Positive allosteric modulator activity was analyzed as a concentration-dependent increase in the EC20 acetylcholine response. Antagonist activity was analyzed as a concentration-dependent decrease in the EC80 acetylcholine response; for the purposes of the tables herein, an IC50 (inhibitory concentration 50) was calculated as a concentration-dependent decrease of the response elicited by an EC80 concentration of acetylcholine. Concentration-response curves were generated using a four-parameter logistical equation in XLFit curve fitting software (IDBS, Bridgewater, NJ) for Excel (Microsoft, Redmond, WA) or Prism (GraphPad Software, Inc., San Diego, CA) or the Dotmatics software platform (Dotmatics, Bishop's Stortford, UK).
Compounds were synthesized as described above. Activity (IC50 and Emin) was determined in the mAChR M4 cell-based functional assay as described above and the data are shown in Table 2.

[1] = CHO-K1, read-out: Human M4 Emin (% ACh maximum at 30 μM)
[2] = M4/Gqi5/CHO-K1 cells, % ACh maximum at 30 μM, read-out: Human M4 Emin (% ACh maximum at 30 μM)
[3] = M4/Gqi5/CHO-K1 cells, % ACh maximum at 30 μM

Row | IC50 (M4/Gqi5/CHO-K1 cells) [nM] | remaining activity at 30 µM [2] [%] | Human M4 Emin (% ACh maximum at 30 μM) [3] [%] | SMILES | remaining activity at 30 µM [1] [%]
1 | 10 | 4 | – | [2H]C([2H])([2H])NC(=O)c1cccc(-c2ccc(N[C@H]3C[C@@H]4CN(CC5CCOCC5)C[C@@H]4C3)nn2)c1 (single isomer, unassigned) [Compound A47] | –
2 | 5.5 | 3 | – | [2H]C([2H])([2H])NC(=O)c1cccc(-c2ccc(N[C@H]3C[C@@H]4CN(C([2H])([2H])C5CCOCC5)C[C@@H]4C3)nn2)c1 (single isomer, unassigned) [Compound A49] | –
3 | 9.9 | 3 | – | [2H]C([2H])([2H])NC(=O)c1ccc(-c2ccc(N[C@H]3C[C@@H]4CN(CC5CCOCC5)C[C@@H]4C3)nn2)cc1 (single isomer, unassigned) [Compound A54] | –
4 | 16 | 5 | – | [2H]C([2H])(C1CCOCC1)N1C[C@H]2C[C@H](Nc3ccc(-c4ccc(C(=O)NC)cc4)nn3)C[C@H]2C1 (single isomer, unassigned) [Compound A64] | –
5 | 40 | 4 | – | [2H]C1([2H])CC(C([2H])([2H])N2C[C@H]3C[C@H](Nc4ccc(-c5cccc(C(=O)NC)c5)nn4)C[C@H]3C2)CC([2H])([2H])O1 (single isomer, unassigned) [Compound A74] | –
6 | 0.4 | – | 4 | [2H]C([2H])(C1CCOCC1)N1C[C@H]2C[C@H](Nc3ccc(-c4ccc(NC(C)=O)cc4)nn3)C[C@H]2C1 (single isomer, unassigned) [Compound B1] | –
7 | 2.4 | – | 3 | [2H]C([2H])([2H])C(=O)Nc1ccc(-c2ccc(N[C@H]3C[C@@H]4CN(CC5CCOCC5)C[C@@H]4C3)nn2)cc1 (single isomer, unassigned) [Compound B5] | –
8 | 1.2 | – | 3 | [2H]C([2H])([2H])C(=O)Nc1ccc(-c2ccc(N[C@H]3C[C@@H]4CN(C([2H])([2H])C5CCOCC5)C[C@@H]4C3)nn2)cc1 (single isomer, unassigned) [Compound B6] | –
9 | 62 | 4 | – | CC(=O)Nc1ccc(-c2ccc(N[C@H]3C[C@@H]4CN(Cc5ccccc5F)C[C@@H]4C3)nn2)cc1 [Compound A1, N-(4-(6-(((3aR,5s,6aS)-2-(2-fluorobenzyl)octahydrocyclopenta[c]pyrrol-5-yl)amino)pyridazin-3-yl)phenyl)acetamide] | –
10 | 51 | 4 | – | CC(=O)Nc1ccc(-c2ccc(N[C@H]3C[C@@H]4CN(Cc5cccc(F)c5)C[C@@H]4C3)nn2)cc1 [Compound A2, N-(4-(6-(((3aR,5s,6aS)-2-(3-fluorobenzyl)octahydrocyclopenta[c]pyrrol-5-yl)amino)pyridazin-3-yl)phenyl)acetamide] | –
11 | 10 | 2 | – | CC(=O)Nc1ccc(-c2ccc(N[C@H]3C[C@@H]4CN(Cc5ccc(F)cc5)C[C@@H]4C3)nn2)cc1 [Compound A3, N-(4-(6-(((3aR,5s,6aS)-2-(4-fluorobenzyl)octahydrocyclopenta[c]pyrrol-5-yl)amino)pyridazin-3-yl)phenyl)acetamide] | –
12 | 0.19 | 3 | – | CC(=O)Nc1ccc(-c2ccc(N[C@H]3C[C@@H]4CN(Cc5ccc6c(c5)OCO6)C[C@@H]4C3)nn2)cc1 [Compound A4, N-(4-(6-(((3aR,5s,6aS)-2-(benzo[d][1,3]dioxol-5-ylmethyl)octahydrocyclopenta[c]pyrrol-5-yl)amino)pyridazin-3-yl)phenyl)acetamide] | –
13 | 2300 | 10 | – | CC(=O)Nc1ccc(-c2ccc(N[C@H]3C[C@@H]4CN(Cc5cc(C)n(C)n5)C[C@@H]4C3)nn2)cc1 [Compound A5, N-(4-(6-(((3aR,5s,6aS)-2-((1,5-dimethyl-1H-pyrazol-3-yl)methyl)octahydrocyclopenta[c]pyrrol-5-yl)amino)pyridazin-3-yl)phenyl)acetamide] | –
14 | 4600 | 16 | – | CC(=O)Nc1ccc(-c2ccc(N[C@H]3C[C@@H]4CN(CC5(C)COC5)C[C@@H]4C3)nn2)cc1 [Compound A6, N-(4-(6-(((3aR,5s,6aS)-2-((3-methyloxetan-3-yl)methyl)octahydrocyclopenta[c]pyrrol-5-yl)amino)pyridazin-3-yl)phenyl)acetamide] | –
15 | 1100 | 10 | – | CC(=O)Nc1ccc(-c2ccc(N[C@H]3C[C@@H]4CN(Cc5ccccc5C(F)(F)F)C[C@@H]4C3)nn2)cc1 [Compound A7, N-(4-(6-(((3aR,5s,6aS)-2-(2-(trifluoromethyl)benzyl)octahydrocyclopenta [c]pyrrol-5-yl)amino)pyridazin-3-yl)phenyl)acetamide] | –
16 | 440 | 5 | – | CN(C)C(=O)c1cc(F)c(F)c(-c2ccc(N[C@H]3C[C@@H]4CN(CC5CCOCC5)C[C@@H]4C3)nn2)c1 [Compound A9, 3,4-difluoro-N,N-dimethyl-5-(6-(((3aR,5s,6aS)-2-((tetrahydro-2H-pyran-4-yl)methyl)octahydrocyclopenta[c]pyrrol-5-yl)amino)pyridazin-3-yl)benzamide] | –
17 | 82 | 3 | – | O=C(c1cc(F)c(F)c(-c2ccc(N[C@H]3C[C@@H]4CN(CC5CCOCC5)C[C@@H]4C3)nn2)c1)N1CCOCC1 [Compound A10, (3,4-difluoro-5-(6-(((3aR,5s,6aS)-2-((tetrahydro-2H-pyran-4-yl)methyl)octahydrocyclopenta[c]pyrrol-5-yl)amino)pyridazin-3-yl)phenyl)(morpholino)methanone] | –

Row | SMILES | IC50 (M4/Gqi5/CHO-K1 cells) [nM] | remaining activity at 30 µM [2] [%] | Human M4 Emin (% ACh maximum at 30 μM) [3] [%] | remaining activity at 30 µM [1] [%]
18 | [2H]C([2H])(C1CCOCC1)N1C[C@H]2C[C@H](Nc3ccc(-c4cccc(C(=O)NC)c4)nn3)C[C@H]2C1 (single isomer, unassigned) [Compound A42] | 400 | – | – | 14
19 | [2H]C([2H])([2H])NC(=O)c1ccc(-c2ccc(N[C@H]3C[C@@H]4CN(C([2H])([2H])C5CCOCC5)C[C@@H]4C3)nn2)cc1 (single isomer, unassigned) [Compound A55] | 5.1 | – | – | 3
20 | CC(=O)Nc1ccc(-c2ccc(N[C@H]3C[C@@H]4CN(Cc5ccccn5)C[C@@H]4C3)nn2)cc1 [Compound A8, N-(4-(6-(((3aR,5s,6aS)-2-(Pyridin-2-ylmethyl)octahydrocyclopenta[c]pyrrol-5-yl)amino)pyridazin-3-yl)phenyl)acetamide] | 43 | – | – | 5
